# According to ChEMBL document CHEMBL4665796 (2020):
# Calls of active or inactive are those of the source. No cut-off for these calls is given here.
# Tests used:
# [1] = tested on: Bacillus subtilis; assay: Antimicrobial activity against Bacillus subtilis at 1.5 ug after 18 hrs by paper disk-agar diffusion assay; type: functional, organism-based; conditions: dose 1.5 µg
# [2] = tested on: Candida; assay: Antimicrobial activity against Candida sp. at 1.5 ug after 18 hrs by paper disk-agar diffusion assay; type: functional, organism-based; conditions: dose 1.5 µg
# [3] = tested on: Pseudomonas putida; assay: Antimicrobial activity against Pseudomonas putida at 1.5 ug after 18 hrs by paper disk-agar diffusion assay; type: functional, organism-based; conditions: dose 1.5 µg
# [4] = target: Sodium channel protein type 5 subunit alpha (Homo sapiens, UniProt Q14524); assay: Inhibition of NaV1.5 (unknown origin) at 5 uM
# Chain of Sodium channel protein type 5 subunit alpha (Q14524 whole entry): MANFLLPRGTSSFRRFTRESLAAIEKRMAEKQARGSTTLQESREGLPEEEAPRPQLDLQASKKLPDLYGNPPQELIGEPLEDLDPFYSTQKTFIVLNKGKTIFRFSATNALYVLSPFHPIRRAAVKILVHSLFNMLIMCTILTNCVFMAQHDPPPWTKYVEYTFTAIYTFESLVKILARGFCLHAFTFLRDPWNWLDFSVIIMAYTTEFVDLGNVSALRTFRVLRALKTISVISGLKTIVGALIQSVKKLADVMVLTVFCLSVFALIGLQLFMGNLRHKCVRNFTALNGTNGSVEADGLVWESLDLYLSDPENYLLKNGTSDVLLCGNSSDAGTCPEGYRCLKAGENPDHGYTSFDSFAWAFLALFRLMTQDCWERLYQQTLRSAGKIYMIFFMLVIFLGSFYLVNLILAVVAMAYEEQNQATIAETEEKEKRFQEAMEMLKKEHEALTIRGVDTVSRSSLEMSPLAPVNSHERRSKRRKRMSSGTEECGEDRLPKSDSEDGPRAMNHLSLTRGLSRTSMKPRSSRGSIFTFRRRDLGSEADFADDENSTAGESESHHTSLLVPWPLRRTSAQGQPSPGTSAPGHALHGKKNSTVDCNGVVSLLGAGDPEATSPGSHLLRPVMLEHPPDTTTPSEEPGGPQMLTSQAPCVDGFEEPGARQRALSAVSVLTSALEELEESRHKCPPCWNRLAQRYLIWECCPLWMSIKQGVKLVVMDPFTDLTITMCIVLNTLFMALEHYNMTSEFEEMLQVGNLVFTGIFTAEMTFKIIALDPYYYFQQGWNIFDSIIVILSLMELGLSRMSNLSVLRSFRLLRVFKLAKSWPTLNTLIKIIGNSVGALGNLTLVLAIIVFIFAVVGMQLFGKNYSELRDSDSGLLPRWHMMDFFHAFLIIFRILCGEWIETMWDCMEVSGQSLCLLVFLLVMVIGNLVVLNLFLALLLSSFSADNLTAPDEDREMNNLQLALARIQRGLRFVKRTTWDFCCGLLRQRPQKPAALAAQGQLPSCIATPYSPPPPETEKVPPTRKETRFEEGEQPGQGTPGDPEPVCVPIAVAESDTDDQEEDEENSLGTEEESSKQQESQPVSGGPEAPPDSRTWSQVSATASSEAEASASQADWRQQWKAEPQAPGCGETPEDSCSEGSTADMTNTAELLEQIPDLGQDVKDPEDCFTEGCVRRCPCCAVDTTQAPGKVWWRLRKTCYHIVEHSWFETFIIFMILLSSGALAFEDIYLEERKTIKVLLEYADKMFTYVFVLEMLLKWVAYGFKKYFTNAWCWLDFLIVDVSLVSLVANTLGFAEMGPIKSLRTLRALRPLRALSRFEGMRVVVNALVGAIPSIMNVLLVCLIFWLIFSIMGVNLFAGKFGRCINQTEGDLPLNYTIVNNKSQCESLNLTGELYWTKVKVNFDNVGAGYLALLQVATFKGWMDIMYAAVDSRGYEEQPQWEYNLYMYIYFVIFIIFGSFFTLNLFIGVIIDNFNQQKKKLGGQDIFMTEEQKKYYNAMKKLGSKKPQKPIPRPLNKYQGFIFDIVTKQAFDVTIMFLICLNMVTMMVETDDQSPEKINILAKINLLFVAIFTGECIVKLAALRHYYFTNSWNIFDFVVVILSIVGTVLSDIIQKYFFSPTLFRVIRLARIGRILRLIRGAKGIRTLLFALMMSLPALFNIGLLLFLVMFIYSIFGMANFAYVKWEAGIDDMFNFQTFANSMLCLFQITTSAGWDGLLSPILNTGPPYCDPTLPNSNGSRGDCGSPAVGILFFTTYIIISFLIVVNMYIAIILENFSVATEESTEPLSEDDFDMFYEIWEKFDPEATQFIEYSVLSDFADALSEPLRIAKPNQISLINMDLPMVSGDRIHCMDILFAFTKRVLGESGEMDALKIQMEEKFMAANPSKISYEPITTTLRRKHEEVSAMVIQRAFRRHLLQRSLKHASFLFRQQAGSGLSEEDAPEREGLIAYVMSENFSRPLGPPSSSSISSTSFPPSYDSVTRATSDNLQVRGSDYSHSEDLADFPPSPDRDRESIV
SMILES,Activity [1],Activity [2],Activity [3],inhibition (INH) [4]
C[C@]12NC(=N)NC=C1C[C@]1(C)O[C@@]2(O)CC1=O,inactive,inactive,inactive,Not Active
C[C@]12NC(=N)NC[C@H]1C[C@]1(C)O[C@@]2(O)C[C@@H]1O,–,–,–,Not Active
C[C@]1(O)C[C@@H]2CNC(=N)N[C@]2(C)C(=O)C[C@@H]1O,–,–,–,Not Active
C[C@@]12NC(=N)N[C@H]3O[C@H]4C[C@]1(O)O[C@@]4(C)C[C@H]32,–,–,–,Not Active
C[C@]12NC(=N)NC=C1C[C@]1(C)O[C@@]2(O)C[C@@H]1O,inactive,inactive,inactive,Not Active
C[C@]12NC(=N)NC[C@H]1C[C@]1(C)O[C@@]2(O)CC1=O,–,–,–,Not Active
